One block for each compound: values may come before it.
Assays:
[1] = target: T1, Mitogen-activated protein kinase kinase kinase kinase 1 (Homo sapiens, UniProt Q92918); assay: Inhibition of HPK1 (unknown origin) by FRET assay
Target sequence in this assay (Q92918 whole entry): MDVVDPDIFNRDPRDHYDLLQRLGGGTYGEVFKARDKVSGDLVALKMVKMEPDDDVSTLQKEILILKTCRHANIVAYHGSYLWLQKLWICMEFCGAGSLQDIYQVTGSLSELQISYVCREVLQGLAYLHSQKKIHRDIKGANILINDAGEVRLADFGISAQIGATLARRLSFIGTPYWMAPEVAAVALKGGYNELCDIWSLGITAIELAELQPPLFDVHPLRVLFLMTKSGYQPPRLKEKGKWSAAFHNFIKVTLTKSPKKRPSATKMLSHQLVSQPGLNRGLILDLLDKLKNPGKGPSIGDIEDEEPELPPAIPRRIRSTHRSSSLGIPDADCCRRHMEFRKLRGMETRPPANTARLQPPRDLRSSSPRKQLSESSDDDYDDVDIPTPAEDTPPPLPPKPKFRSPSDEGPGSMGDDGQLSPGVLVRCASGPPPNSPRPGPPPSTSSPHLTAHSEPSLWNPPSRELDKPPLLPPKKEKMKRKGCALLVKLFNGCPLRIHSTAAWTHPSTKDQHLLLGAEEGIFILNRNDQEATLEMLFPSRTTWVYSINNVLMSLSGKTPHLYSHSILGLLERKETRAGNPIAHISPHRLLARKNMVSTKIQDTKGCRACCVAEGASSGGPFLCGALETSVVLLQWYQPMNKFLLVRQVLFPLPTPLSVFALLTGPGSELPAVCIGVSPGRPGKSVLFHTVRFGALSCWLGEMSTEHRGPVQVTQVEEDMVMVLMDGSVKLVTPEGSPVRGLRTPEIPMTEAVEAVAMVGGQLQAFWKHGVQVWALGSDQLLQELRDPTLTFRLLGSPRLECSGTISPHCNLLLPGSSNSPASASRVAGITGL

[2] = target: T1, Mitogen-activated protein kinase kinase kinase kinase 1; assay: Inhibition of full-length HPK1 (unknown origin) assessed as inhibition constant in presence of ATP by HTRF assay
Target sequence in this assay (Q92918 whole entry): as above

[3] = target: T1, Mitogen-activated protein kinase kinase kinase kinase 1; assay: Inhibition of HPK1 (unknown origin) assessed as inhibition constant by Lanthascreen binding assay
Target sequence in this assay (Q92918 whole entry): as above

[4] = target: T1, Mitogen-activated protein kinase kinase kinase kinase 1; assay: Inhibition of HPK1 (unknown origin) by TR-FRET assay
Target sequence in this assay (Q92918 whole entry): as above

[5] = Cytotoxicity against HEK293 cells assessed as cell growth inhibition; type: toxicity, cell-based; conditions: human
[6] = target: T1, Mitogen-activated protein kinase kinase kinase kinase 1; assay: Inhibition of HPK1 (unknown origin) in presence of ATP by ADP-Glo kinase assay
Target sequence in this assay (Q92918 whole entry): as above

[7] = target: T1, Mitogen-activated protein kinase kinase kinase kinase 1; assay: Inhibition of HPK1 (unknown origin) in presence of ATP
Target sequence in this assay (Q92918 whole entry): as above

[8] = target: Interleukin-2 (Homo sapiens, UniProt P60568); assay: Inhibition of IL-2 (unknown origin)
[9] = target: T1, Mitogen-activated protein kinase kinase kinase kinase 1; assay: Inhibition of HPK1 (1 to 346 residues) (unknown origin) assessed as inhibition constant by Lanthascreen binding assay
[10] = target: T1, Mitogen-activated protein kinase kinase kinase kinase 1; assay: Inhibition of HPK1 (unknown origin) by ADP-Glo kinase assay
[11] = target: T2, Protein cereblon/Mitogen-activated protein kinase kinase kinase kinase 1 (Homo sapiens) (UniProt Q92918+Q96SW2); assay: PROTAC activity at CRBN/HPK1 (unknown origin) assessed as maximum degradation of HPK1 by cell based assay relative to control
[12] = target: T2, Protein cereblon/Mitogen-activated protein kinase kinase kinase kinase 1 (Homo sapiens); assay: PROTAC activity at CRBN/HPK1 (unknown origin) assessed as degradation of HPK1 at 10 nM incubated for 12 hrs by cell based assay relative to control
[13] = target: T2, Protein cereblon/Mitogen-activated protein kinase kinase kinase kinase 1 (Homo sapiens); assay: PROTAC activity at CRBN/HPK1 (unknown origin) assessed as degradation of HPK1 at 100 nM incubated for 12 hrs by cell based assay relative to control
[14] = target: T2, Protein cereblon/Mitogen-activated protein kinase kinase kinase kinase 1 (Homo sapiens); assay: PROTAC activity at CRBN/HPK1 (unknown origin) assessed as maximum inhibition of SLP76 phosphorylation by cell based assay relative to control
[15] = target: T1, Mitogen-activated protein kinase kinase kinase kinase 1; assay: Inhibition of HPK1 in human PBMC assessed as inhibition of SLP76 phosphorylation incubated for 1 hr by ELISA; type: cell-based
[16] = target: T1, Mitogen-activated protein kinase kinase kinase kinase 1; assay: Inhibition of N-terminal DYKDDDDK-tagged human HPK1 (1 to 346 residues) expressed in baculovirus expression system using SLP76 as substrate incubated for 1 hr in presence of ATP by TR-FRET assay
[17] = target: T3, Receptor-type tyrosine-protein kinase FLT3 (Homo sapiens, UniProt P36888); assay: Inhibition of FLT3 (unknown origin) by FRET assay
T3 sequence (P36888 whole entry): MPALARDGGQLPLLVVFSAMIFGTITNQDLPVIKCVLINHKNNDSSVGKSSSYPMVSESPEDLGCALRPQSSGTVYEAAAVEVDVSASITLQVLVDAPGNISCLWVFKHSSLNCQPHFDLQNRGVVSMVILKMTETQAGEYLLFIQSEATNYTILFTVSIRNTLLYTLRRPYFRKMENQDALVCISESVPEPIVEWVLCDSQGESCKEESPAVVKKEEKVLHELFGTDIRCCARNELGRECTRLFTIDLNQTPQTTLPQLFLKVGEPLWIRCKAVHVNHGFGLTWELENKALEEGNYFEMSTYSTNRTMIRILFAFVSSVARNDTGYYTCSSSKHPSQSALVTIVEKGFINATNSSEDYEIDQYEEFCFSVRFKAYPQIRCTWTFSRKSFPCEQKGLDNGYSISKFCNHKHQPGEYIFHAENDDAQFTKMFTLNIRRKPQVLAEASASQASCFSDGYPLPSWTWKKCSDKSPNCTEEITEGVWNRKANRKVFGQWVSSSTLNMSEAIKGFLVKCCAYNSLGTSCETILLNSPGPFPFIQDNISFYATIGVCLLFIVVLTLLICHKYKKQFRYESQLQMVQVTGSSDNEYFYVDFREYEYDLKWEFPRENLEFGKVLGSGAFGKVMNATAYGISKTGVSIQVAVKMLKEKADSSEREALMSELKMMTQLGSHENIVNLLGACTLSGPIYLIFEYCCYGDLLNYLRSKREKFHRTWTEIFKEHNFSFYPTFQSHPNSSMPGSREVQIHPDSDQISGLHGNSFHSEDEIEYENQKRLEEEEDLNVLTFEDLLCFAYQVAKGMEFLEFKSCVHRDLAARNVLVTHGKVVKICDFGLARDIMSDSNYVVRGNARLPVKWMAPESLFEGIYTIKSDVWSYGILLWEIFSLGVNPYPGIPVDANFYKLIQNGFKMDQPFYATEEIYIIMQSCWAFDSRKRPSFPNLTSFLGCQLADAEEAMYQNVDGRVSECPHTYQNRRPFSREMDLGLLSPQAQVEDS

[18] = target: T1, Mitogen-activated protein kinase kinase kinase kinase 1; assay: Inhibition of HPK1 (unknown origin) by ELISA
[19] = target: T1, Mitogen-activated protein kinase kinase kinase kinase 1; assay: Inhibition of HPK1 (unknown origin) assessed as inhibition of SLP76 phosphorylation at 0.3 to 1 uM relative to control; conditions: dose 0.3-1 µM
Target sequence in this assay (Q92918 whole entry, looked up): as the sequence (Q92918 whole entry) above

[20] = target: Tyrosine-protein kinase Lck (Homo sapiens, UniProt P06239); assay: Inhibition of LCK (unknown origin)
[21] = target: T1, Mitogen-activated protein kinase kinase kinase kinase 1; assay: Inhibition of HPK1 (unknown origin) in presence of ATP by TR-FRET assay
[22] = target: T1, Mitogen-activated protein kinase kinase kinase kinase 1; assay: Binding affinity to HPK1 (unknown origin) assessed as dissociation constant by SPR analysis
[23] = target: T1, Mitogen-activated protein kinase kinase kinase kinase 1; assay: Inhibition of HPK1(unknown origin) assessed as inhibition of SLP76 phosphorylation by cell based assay
[24] = target: T1, Mitogen-activated protein kinase kinase kinase kinase 1; assay: Inhibition of HPK1 (unknown origin) assessed as inhibition of SLP76 phosphorylation by HTRF assay

T2 sequence (Q92918 whole entry, looked up): as the sequence (Q92918 whole entry) above
T2 sequence (Q96SW2 whole entry, looked up): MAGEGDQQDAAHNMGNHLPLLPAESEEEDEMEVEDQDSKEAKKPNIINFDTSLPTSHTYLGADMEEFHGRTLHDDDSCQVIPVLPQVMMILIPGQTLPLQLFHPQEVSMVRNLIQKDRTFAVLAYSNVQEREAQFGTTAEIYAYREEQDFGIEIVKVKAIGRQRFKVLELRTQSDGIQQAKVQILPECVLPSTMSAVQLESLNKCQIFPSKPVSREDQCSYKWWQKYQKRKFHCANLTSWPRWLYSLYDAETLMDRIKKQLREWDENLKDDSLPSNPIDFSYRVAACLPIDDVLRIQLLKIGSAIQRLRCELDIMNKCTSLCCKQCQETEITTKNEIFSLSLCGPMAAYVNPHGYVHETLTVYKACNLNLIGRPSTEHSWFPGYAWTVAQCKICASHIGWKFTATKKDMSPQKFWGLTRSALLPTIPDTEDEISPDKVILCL
Sequence of Tyrosine-protein kinase Lck (P06239 whole entry): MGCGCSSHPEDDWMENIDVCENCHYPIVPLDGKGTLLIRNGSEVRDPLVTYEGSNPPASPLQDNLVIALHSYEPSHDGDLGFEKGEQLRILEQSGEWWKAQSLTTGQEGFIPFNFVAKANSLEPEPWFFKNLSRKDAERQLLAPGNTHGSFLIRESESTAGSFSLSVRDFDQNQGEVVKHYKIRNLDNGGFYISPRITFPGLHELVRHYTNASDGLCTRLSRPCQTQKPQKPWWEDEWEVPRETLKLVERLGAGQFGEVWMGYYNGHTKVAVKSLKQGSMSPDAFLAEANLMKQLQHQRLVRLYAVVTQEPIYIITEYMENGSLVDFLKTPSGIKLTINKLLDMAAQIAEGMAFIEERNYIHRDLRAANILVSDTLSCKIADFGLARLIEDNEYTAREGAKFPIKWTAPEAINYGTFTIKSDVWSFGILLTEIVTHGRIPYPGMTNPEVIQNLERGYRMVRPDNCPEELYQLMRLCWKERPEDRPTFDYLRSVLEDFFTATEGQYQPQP
Sequence of Interleukin-2 (P60568 whole entry, the tested form may be a part): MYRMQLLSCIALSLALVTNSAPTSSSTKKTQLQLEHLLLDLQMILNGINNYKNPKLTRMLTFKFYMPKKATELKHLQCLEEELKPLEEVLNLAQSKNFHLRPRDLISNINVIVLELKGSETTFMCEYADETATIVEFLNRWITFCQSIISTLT

SMILES: Cc1cc(-c2cnc3[nH]cc(-c4ccc(C(=O)N(C)C[C@H](C)O)cc4)c3n2)cc2c1CCN(CCN1CCOCC1)C2
IC50 [4]: 11 nM | IC50 [5]: 1420 nM

SMILES: Cc1cc2cc(N)c(C(=O)N(C)C)nc2[nH]1
Ki [3]: 1300 nM

SMILES: C[C@H]1CC(=O)c2ccc(Nc3cc4c([C@](C)(N)C5CC5)cnc(OC5CC5)c4cn3)cc2C12CC2
IC50 [7]: 0.05 nM | EC50 [8]: 9.4 nM

SMILES: Cc1c(CC#N)ccnc1-c1cc(N)cc(-c2cnc3c(c2Cl)[C@]2(CC[C@](C)(C#N)C2)CN3)c1
Ki [3]: 0.9 nM

SMILES: CN(C)C(=O)c1ccc(-c2c[nH]c3ncc(-c4ccc5c(c4)CN([C@H]4CC[C@](C)(O)CC4)CC5)cc23)cc1
IC50 [4]: 7.3 nM

SMILES: COCCN(C)C(=O)c1ccc(-c2c[nH]c3ncc(-c4ccc(N5CCN(C)CC5)cc4)nc23)cc1
IC50 [4]: 8.2 nM

SMILES: COc1cccc(F)c1-c1ncc2[nH]nc(-c3ccc(N4CCN(C)CC4)cc3)c2n1
Ki [9]: ≤ 100 nM

SMILES: COc1cc2c(cc1Nc1ncc(Cl)c(Nc3ccccc3P(C)(C)=O)n1)CN(C)CC2
IC50 [15]: 100 nM | IC50 [7]: < 5 nM | IC50 [16]: 0.334 nM

SMILES: COc1cccc(F)c1-c1ccc2[nH]nc(-c3ccc(N4CCN(C)CC4)cc3)c2n1
Ki [9]: ≤ 100 nM

SMILES: CNC(=O)c1ccccc1Nc1nc(Nc2cc3c(cc2OC)CCN(C)C3)ncc1Cl
IC50 [7]: 5 nM

SMILES: CN1CCN(c2ccc3nc(-c4c(N)c5sccc5[nH]c4=O)[nH]c3c2)CC1
IC50 [17]: 50 nM | IC50 [18]: 50 nM | inhibition [19]: > 75% | IC50 [20]: 50 nM

SMILES: CCc1c(C)[nH]c2nc(C(=O)N(C)C)c(N)cc12
Ki [3]: 15 nM

SMILES: COc1cc2c(cc1Nc1ncc(Cl)c(Nc3ccccc3S(=O)(=O)C(C)C)n1)CN(C)CC2
IC50 [7]: ≤ 5 nM

SMILES: COc1ccc(-c2c[nH]c3ncnc(Oc4c(F)cc(NC5=NCC(C)(CO)CO5)cc4F)c23)c(F)c1 (configuration not stated)
IC50 [6]: ≤ 50 nM

SMILES: CC(C)n1cnnc1-c1cccc(N2Cc3c(cc(N4CCC[C@H]4C)nc3CN)C2=O)n1
IC50 [24]: 22 nM

SMILES: CCc1c(Cl)[nH]c2nc(C(=O)N(C)C)c(N)cc12
Ki [3]: 0.9 nM

SMILES: COc1cc2c(cc1Nc1ncc(Cl)c(N3CC(CO)c4ccccc43)n1)CN(C)CC2 (configuration not stated)
IC50 [10]: < 100 nM

Next, values leading:

IC50 [1]: < 50 nM
SMILES: CCN(CC)CCNC(=O)c1c[nH]c(/C=C2\C(=O)Nc3ccc(-c4c(F)cccc4OC)cc32)c1

Ki [2]: 0.05 nM
SMILES: Cc1c(N)cncc1-c1cc2cc(Nc3cc4n(n3)CC(=O)N(C(C)C)CC4)ncc2cc1F

Ki [3]: 0.39 nM
SMILES: Cc1c(CC#N)ccnc1-c1cccc(-c2cnc3c(c2Cl)C2(CC[C@@](C)(C(N)=O)C2)CN3)c1F (some centres not stated)

IC50 [6]: ≤ 50 nM
SMILES: COc1ccc(-c2c[nH]c3ncc(C#N)c(Oc4c(F)cc(NC5=NCC(C)(CO)CO5)cc4F)c23)c(F)c1 (configuration not stated)

IC50 [4]: 107 nM
SMILES: CN(C)C(=O)c1ccc(-c2c[nH]c3ncc(-c4ccc5c(c4)CNCC5)cc23)cc1

Ki [9]: ≤ 100 nM
SMILES: COc1cccc(F)c1-n1cc2c(-c3ccc(N4CCN(C)CC4)cc3)n[nH]c2cc1=O

IC50 [10]: 1.9 nM
SMILES: C[C@H]1COC(=O)N1c1cc(N)c2nnc(NC(=O)[C@@H]3C[C@H]3c3cnn(C)c3)cc2c1

Emax [11]: 62% | Activity [12]: 15% | Activity [13]: 75% | Emax [14]: 81%
SMILES: CC(C)(O)C#Cc1cccc(COc2cc(-c3cnc(C4CCN(C(=O)CCCCCCCCCOc5cccc6c5C(=O)N(C5CCC(=O)NC5=O)C6=O)CC4)s3)cnc2N)c1 (configuration not stated)

IC50 [7]: 5 nM
SMILES: COc1cc2c(cc1Nc1ncc(C(F)(F)F)c(Nc3ccccc3P(C)(C)=O)n1)CN(C)CC2

IC50 [1]: < 50 nM
SMILES: C/C(Nc1ccc(N2CCOCC2)cn1)=C1/C(=O)Nc2cnc(-c3cnccc3C)cc21

IC50 [4]: 4.5 nM
SMILES: Cc1cc(-c2cnc3[nH]cc(-c4ccc(C(O)C5CCN(C)C5)cc4)c3c2)ccc1N1CCN(C)CC1 (configuration not stated)

Ki [9]: ≤ 100 nM
SMILES: Cc1cc(CNCCO)cc(F)c1-c1cc2c(-c3cnn(C)c3)n[nH]c2cn1

Activity [12]: 72% | Activity [13]: 68%
SMILES: CC(C)(O)C#Cc1cccc(COc2cc(-c3cnc(C4CCN(C(=O)CCOCCOCCOCCOCCOc5cccc6c5C(=O)N(C5CCC(=O)NC5=O)C6=O)CC4)s3)cnc2N)c1 (configuration not stated)

IC50 [4]: 4.8 nM
SMILES: Cc1cc(-c2cnc3[nH]cc(-c4ccc(C(=O)N5CC(N(C)C)C5)cc4)c3c2)cc(C)c1N1CCN(C2CCN(C)CC2)CC1

IC50 [7]: ≤ 5 nM
SMILES: COc1cc2c(cc1Nc1ncc(Br)c(Nc3ccccc3P(C)(C)=O)n1)CN(C)CC2

inhibition [19]: > 75%
SMILES: CN1CCN(c2ccc3nc(-c4c(N)c5ccsc5[nH]c4=O)[nH]c3c2)CC1

IC50 [17]: ≤ 500 nM | IC50 [18]: ≤ 50 nM | IC50 [20]: 50 nM
SMILES: CN1CCN(c2ccc3[nH]c(-c4c(N)c5ccsc5[nH]c4=O)nc3c2)CC1

IC50 [21]: 4 nM | Kd [22]: 2.2 nM | EC50 [23]: 149 nM
SMILES: Cn1cc(Nc2ncc(C3=CCC[C@@H](NC(=O)c4ccccc4)C3)nc2C(N)=O)cn1

IC50 [24]: 730 nM
SMILES: CNCc1nc(C2(C)CC2)cc2c1CN(c1cccc(N3C(=O)OC[C@@H]3C)n1)C2=O

IC50 [7]: 10 nM
SMILES: COc1cc2c(cc1Nc1ncc(Cl)c(Nc3ccccc3P(C)(C)=O)n1)CN(C)C2

Ki [9]: 500 nM
SMILES: COc1cccc(F)c1-c1cc2c(NCc3ccc(N4CCN(C)CC4)cc3)n[nH]c2cn1

IC50 [21]: 2.8 nM
SMILES: Cc1cc(-c2cnc(N)c(OCc3ccnc(C#Cc4cccc(F)c4)c3)n2)cc2c1CCN(C)C2

IC50 [10]: < 0.01 nM
SMILES: Cc1ccncc1-c1cc2cc(NC(=O)C=C3CC(C#N)C3)ncc2c(N)n1 (configuration not stated)

IC50 [7]: 100 nM
SMILES: COc1cc2c(cc1Nc1ncc(Cl)c(Nc3ccccc3P(C)(C)=O)n1)CN(C)CCC2

Ki [9]: ≤ 100 nM
SMILES: COc1cccc(F)c1-c1cc2c(C(=O)Nc3ccc(N4CCN(C)CC4)cc3)n[nH]c2cn1

Source: ChEMBL document CHEMBL5137050, “Hematopoietic Progenitor Kinase 1 in Tumor Immunology: A Medicinal Chemistry Perspective” (J Med Chem, 2022)
